Measured values as given in patent US10758534B2 (Vertex Pharmaceuticals Incorporated, priority 2014, dated 2020).

Target: T1, F508del (Homo sapiens, UniProt P13569, DEL508-508)
T1 construct: expressed in transfected cells
Test: Protocol 2: FRET membrane potential optical assay (VIPR), identification of correction compounds
Format: cell-based
Details: Table 3; compounds of Table 1 as modulators of CFTR activity; protocol not stated
In short: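 FRET read-out (CC2-DMPE donor, DiSBAC2(3) voltage-sensitive acceptor) of membrane depolarization on VIPR II. Corrector candidates incubated 16 hrs at 37° C. with NIH3T3 cells expressing F508del; temperature correction at 27° C. as positive control; stimulation by 10 μM forskolin, 20 μM genistein, chloride-free gluconate bath.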

T1 sequence (P13569 with tags, fused parts or gaps DEL508-508): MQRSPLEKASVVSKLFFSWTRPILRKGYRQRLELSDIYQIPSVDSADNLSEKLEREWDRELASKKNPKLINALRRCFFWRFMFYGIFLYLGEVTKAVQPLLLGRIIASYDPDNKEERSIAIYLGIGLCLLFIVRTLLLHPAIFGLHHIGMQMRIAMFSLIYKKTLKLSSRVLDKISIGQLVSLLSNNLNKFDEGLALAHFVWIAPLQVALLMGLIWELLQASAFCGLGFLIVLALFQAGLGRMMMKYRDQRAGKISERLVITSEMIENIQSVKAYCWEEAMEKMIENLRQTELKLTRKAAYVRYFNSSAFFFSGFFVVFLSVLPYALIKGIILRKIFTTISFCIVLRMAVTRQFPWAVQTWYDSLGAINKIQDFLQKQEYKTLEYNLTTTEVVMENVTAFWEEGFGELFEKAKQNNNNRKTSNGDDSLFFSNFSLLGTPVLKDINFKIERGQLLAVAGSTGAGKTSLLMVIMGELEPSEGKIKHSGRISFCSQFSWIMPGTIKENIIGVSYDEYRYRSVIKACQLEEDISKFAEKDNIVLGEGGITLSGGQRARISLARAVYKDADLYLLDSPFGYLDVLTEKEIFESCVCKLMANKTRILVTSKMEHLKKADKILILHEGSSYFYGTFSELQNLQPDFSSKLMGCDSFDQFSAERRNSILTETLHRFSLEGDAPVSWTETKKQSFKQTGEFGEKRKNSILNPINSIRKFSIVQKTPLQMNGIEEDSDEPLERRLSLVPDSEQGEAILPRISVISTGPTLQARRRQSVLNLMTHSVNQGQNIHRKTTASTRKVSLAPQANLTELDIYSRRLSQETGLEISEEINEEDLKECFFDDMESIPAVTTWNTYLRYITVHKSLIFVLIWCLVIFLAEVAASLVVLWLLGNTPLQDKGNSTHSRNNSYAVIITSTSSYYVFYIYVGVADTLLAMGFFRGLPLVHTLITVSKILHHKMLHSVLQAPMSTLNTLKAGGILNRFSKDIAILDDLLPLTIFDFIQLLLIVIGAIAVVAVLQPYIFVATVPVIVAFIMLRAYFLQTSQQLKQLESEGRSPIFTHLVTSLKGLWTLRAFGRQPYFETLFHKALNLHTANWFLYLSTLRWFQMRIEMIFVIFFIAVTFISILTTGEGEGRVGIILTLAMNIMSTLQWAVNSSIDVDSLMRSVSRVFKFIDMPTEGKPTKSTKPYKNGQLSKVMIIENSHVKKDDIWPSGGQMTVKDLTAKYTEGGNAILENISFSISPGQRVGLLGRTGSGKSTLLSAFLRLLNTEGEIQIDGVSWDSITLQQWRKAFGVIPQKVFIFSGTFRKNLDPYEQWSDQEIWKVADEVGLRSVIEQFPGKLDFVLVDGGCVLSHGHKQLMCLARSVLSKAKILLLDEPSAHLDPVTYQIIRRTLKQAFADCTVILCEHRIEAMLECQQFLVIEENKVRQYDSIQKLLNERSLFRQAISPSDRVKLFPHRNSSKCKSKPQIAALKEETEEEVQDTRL

SMILES | EC30
Cc1cc(C)c(Oc2nc(-c3cccc4nn(C)cc34)ccc2C(=O)NS(=O)(=O)c2cccc(N)n2)c(C)c1 [Compound 451, N-[(6-amino-2-pyridyl)sulfonyl]-6-(2-methylindazol-4-yl)-2-(2,4,6-trimethylphenoxy)pyridine-3-carboxamide] | ++ (“++” means between 3 uM and 10 uM)
CC(C)COc1cc(F)cc(-c2ccc(C(=O)NS(=O)(=O)c3cccc(N)n3)c(OC3CCC(C)C3)n2)c1 (centres unmarked) [Compound 452, N-[(6-amino-2-pyridyl)sulfonyl]-6-(3-fluoro-5-isobutoxy-phenyl)-2-(3-methylcyclopentoxy)pyridine-3-carboxamide] | +++ (“+++” means <3 uM)
CC(C)COc1cc(F)cc(-c2ccc(C(=O)NS(=O)(=O)c3cccc(N)n3)c(N3CC=CC3)n2)c1 [Compound 453, N-[(6-amino-2-pyridyl)sulfonyl]-2-(2,5-dihydropyrrol-1-yl)-6-(3-fluoro-5-isobutoxy-phenyl)pyridine-3-carboxamide] | +++ (“+++” means <3 uM)
C[C@@H]1CC[C@H](C)N1c1nc(-c2ccc(OCC3(C)CC3)nc2)ccc1C(=O)NS(=O)(=O)c1cccc(N)n1 [Compound 454, N-[(6-amino-2-pyridyl)sulfonyl]-2-[(2S,5R)-2,5-dimethylpyrrolidin-1-yl]-6-[6-[(1-methylcyclopropyl)methoxy]-3-pyridyl]pyridine-3-carboxamide] | +++ (“+++” means <3 uM)
CCOc1ccc(-c2nc(N3CC(C)CC3(C)C)c(C(=O)NS(=O)(=O)c3cccc(N)n3)cc2C)cc1 (centres unmarked) [Compound 455, N-[(6-amino-2-pyridyl)sulfonyl]-6-(4-ethoxyphenyl)-5-methyl-2-(2,2,4-trimethylpyrrolidin-1-yl)pyridine-3-carboxamide] | +++ (“+++” means <3 uM)
Cc1ccc(-c2ccc(C(=O)NS(=O)(=O)c3cccc(N)n3)c(N3CC(C)CC3(C)C)n2)cc1 (centres unmarked) [Compound 456, N-[(6-amino-2-pyridyl)sulfonyl]-6-(p-tolyl)-2-(2,2,4-trimethylpyrrolidin-1-yl)pyridine-3-carboxamide] | +++ (“+++” means <3 uM)
Cc1cc(C)c(Oc2nc(-c3cc(C(F)(F)F)nn3C)ccc2C(=O)NS(=O)(=O)c2cccc(N)n2)c(C)c1 [Compound 457, N-[(6-amino-2-pyridyl)sulfonyl]-6-[2-methyl-5-(trifluoromethyl)pyrazol-3-yl]-2-(2,4,6-trimethylphenoxy)pyridine-3-carboxamide] | +++ (“+++” means <3 uM)
CC(C)COc1cc(F)cc(-c2ccc(C(=O)NS(=O)(=O)c3cccc(N)n3)c(N3[C@@H](C)CC[C@@H]3C)n2)c1 [Compound 458, N-[(6-amino-2-pyridyl)sulfonyl]-2-[(2S,5S)-2,5-dimethylpyrrolidin-1-yl]-6-(3-fluoro-5-isobutoxy-phenyl)pyridine-3-carboxamide] | +++ (“+++” means <3 uM)
C[C@@H]1CC[C@H](C)N1c1nc(-c2ccc(Cl)cc2)ccc1C(=O)NS(=O)(=O)c1cccc(N)n1 [Compound 459, N-[(6-amino-2-pyridyl)sulfonyl]-6-(4-chlorophenyl)-2-[(2S,5R)-2,5-dimethylpyrrolidin-1-yl]pyridine-3-carboxamide] | +++ (“+++” means <3 uM)
Cc1ccnc(C)c1Oc1nc(C(C)(C)C)ccc1C(=O)NS(=O)(=O)c1cccc(N)n1 [Compound 460, N-[(6-amino-2-pyridyl)sulfonyl]-6-tert-butyl-2-[(2,4-dimethyl-3-pyridyl)oxy]pyridine-3-carboxamide] | ++ (“++” means between 3 uM and 10 uM)
Cc1cc(C)c(Oc2nc(-c3cc(F)cc(OCC(C)C)c3)ccc2C(=O)NS(=O)(=O)c2cccc(C(=O)O)n2)c(C)c1 [Compound 461, 6-[[6-(3-fluoro-5-isobutoxy-phenyl)-2-(2,4,6-trimethylphenoxy)pyridine-3-carbonyl]sulfamoyl]pyridine-2-carboxylic acid] | ++ (“++” means between 3 uM and 10 uM)
Cc1cc(C)c(CN2c3ccccc3C[C@@H]2C(=O)NS(=O)(=O)c2cccc(N)n2)c(C)c1 [Compound 462, (2R)—N-[(6-amino-2-pyridyl)sulfonyl]-1-[(2,4,6-trimethylphenyl)methyl]indoline-2-carboxamide] | +++ (“+++” means <3 uM)
Cc1cc(C)c(Oc2nc(-c3ccccc3F)ccc2C(=O)NS(=O)(=O)c2cccc(N)n2)c(C)c1 [Compound 463, N-[(6-amino-2-pyridyl)sulfonyl]-6-(2-fluorophenyl)-2-(2,4,6-trimethylphenoxy)pyridine-3-carboxamide] | ++ (“++” means between 3 uM and 10 uM)
CC(C)Oc1ccc(-c2ccc(C(=O)NS(=O)(=O)c3cccc(N)n3)c(N3CCC(C)C3(C)C)n2)cn1 (centres unmarked) [Compound 464, N-[(6-amino-2-pyridyl)sulfonyl]-6-(6-isopropoxy-3-pyridyl)-2-(2,2,3-trimethylpyrrolidin-1-yl)pyridine-3-carboxamide] | +++ (“+++” means <3 uM)
CC(C)COc1cc(F)cc(-c2ccc(C(=O)NS(=O)(=O)C3CCNC3=O)c(N3CC(C)CC3(C)C)n2)c1 (centres unmarked) [Compound 466, 6-(3-fluoro-5-isobutoxy-phenyl)-N-(2-oxopyrrolidin-3-yl)sulfonyl-2-(2,2,4-trimethylpyrrolidin-1-yl)pyridine-3-carboxamide] | +++ (“+++” means <3 uM)
CC(C)COc1ccc(-c2ccc(C(=O)NS(=O)(=O)c3cccc(N)n3)c(N3CC(C)CC3(C)C)n2)cn1 (centres unmarked) [Compound 471, N-[(6-amino-2-pyridyl)sulfonyl]-6-(6-isobutoxy-3-pyridyl)-2-(2,2,4-trimethylpyrrolidin-1-yl)pyridine-3-carboxamide] | +++ (“+++” means <3 uM)
CC(C)COc1cc(F)cc(-c2ccc(C(=O)NS(=O)(=O)c3cccc(N)n3)c(N3CCC(Cc4ccccc4)C3)n2)c1 (centres unmarked) [Compound 473, N-[(6-amino-2-pyridyl)sulfonyl]-2-(3-benzylpyrrolidin-1-yl)-6-(3-fluoro-5-isobutoxy-phenyl)pyridine-3-carboxamide] | +++ (“+++” means <3 uM)
CC(C)COc1cc(F)cc(-c2ccc(C(=O)NS(=O)(=O)c3cccc(N)n3)c(N3CCCC3C)n2)c1 (centres unmarked) [Compound 479, N-[(6-amino-2-pyridyl)sulfonyl]-6-(3-fluoro-5-isobutoxy-phenyl)-2-(2-methylpyrrolidin-1-yl)pyridine-3-carboxamide] | +++ (“+++” means <3 uM)

More lines, now with the values ahead:

EC30 | SMILES
++ (“++” means between 3 uM and 10 uM) | Cc1cc(C)c(Oc2nc(-c3cccc(CN4CCOCC4)c3)ccc2C(=O)NS(=O)(=O)c2cccc(N)n2)c(C)c1 [Compound 465, N-[(6-amino-2-pyridyl)sulfonyl]-6-[3-(morpholinomethyl)phenyl]-2-(2,4,6-trimethylphenoxy)pyridine-3-carboxamide]
++ (“++” means between 3 uM and 10 uM) | Cc1cc(C)c(CN2C[C@H](c3ccccc3)C[C@@H]2C(=O)NS(=O)(=O)c2cccc(N)n2)c(C)c1 [Compound 467, (2R,4S)—N-[(6-amino-2-pyridyl)sulfonyl]-4-phenyl-1-[(2,4,6-trimethylphenyl)methyl]pyrrolidine-2-carboxamide]
+++ (“+++” means <3 uM) | Cc1cc(C)c(Oc2nc(C(C)(C)C)ccc2C(=O)NS(=O)(=O)c2cccc(N(C)C)n2)c(C)c1 [Compound 468, 6-tert-butyl-N-[[6-(dimethylamino)-2-pyridyl]sulfonyl]-2-(2,4,6-trimethylphenoxy)pyridine-3-carboxamide]
++ (“++” means between 3 uM and 10 uM) | CCCn1cc(-c2ccc(C(=O)NS(=O)(=O)c3cccc(N)n3)c(Oc3c(C)cc(C)cc3C)n2)cn1 [Compound 469, N-[(6-amino-2-pyridyl)sulfonyl]-6-(1-propylpyrazol-4-yl)-2-(2,4,6-trimethylphenoxy)pyridine-3-carboxamide]
+++ (“+++” means <3 uM) | COc1ccc(C)c(-c2ccc(C(=O)NS(=O)(=O)c3cccc(N)n3)c(N3CC(C)CC3(C)C)n2)c1 (centres unmarked) [Compound 470, N-[(6-amino-2-pyridyl)sulfonyl]-6-(5-methoxy-2-methyl-phenyl)-2-(2,2,4-trimethylpyrrolidin-1-yl)pyridine-3-carboxamide]
+ (“+” means greater than 10 uM) | Cc1cc(C)c(Cn2nc(C(C)(C)C)cc2C(=O)NS(=O)(=O)c2cccc(Cl)c2)c(C)c1 [Compound 472, 5-tert-butyl-N-(3-chlorophenyl)sulfonyl-2-[(2,4,6-trimethylphenyl)methyl]pyrazole-3-carboxamide]
+++ (“+++” means <3 uM) | COc1ccc2c(c1)C(C)(C(=O)NS(=O)(=O)c1cccc(N)n1)N(Cc1c(C)cc(C)cc1C)C2 (centres unmarked) [Compound 474, N-[(6-amino-2-pyridyl)sulfonyl]-6-methoxy-1-methyl-2-[(2,4,6-trimethylphenyl)methyl]isoindoline-1-carboxamide]
+++ (“+++” means <3 uM) | Cc1cc(C)c(Oc2nc(-c3cnc(N4CCCCC4)nc3)ccc2C(=O)NS(=O)(=O)c2cccc(N)n2)c(C)c1 [Compound 475, N-[(6-amino-2-pyridyl)sulfonyl]-6-[12-(1-piperidyl)pyrimidin-5-yl]-2-(2,4,6-trimethylphenoxy)pyridine-3-carboxamide]
++ (“++” means between 3 uM and 10 uM) | CC(C)Oc1ccc(-c2ccc(C(=O)NS(=O)(=O)c3cccc(N)n3)c(N3C[C@@H]4CC[C@H]3C4)n2)cn1 [Compound 476, N-[(6-amino-2-pyridyl)sulfonyl]-2-[(1R,4S)-3-azabicyclo[2.2.1]heptan-3-yl]-6-(6-isopropoxy-3-pyridyl)pyridine-3-carboxamide]
+++ (“+++” means <3 uM) | COc1c(C)cccc1-c1ccc(C(=O)NS(=O)(=O)c2cccc(N)n2)c(Oc2c(C)cc(C)cc2C)n1 [Compound 477, N-[(6-amino-2-pyridyl)sulfonyl]-6-(2-methoxy-3-methyl-phenyl)-2-(2,4,6-trimethylphenoxy)pyridine-3-carboxamide]
++ (“++” means between 3 uM and 10 uM) | CC(C)(C)c1ccc(C(=O)NS(=O)(=O)c2cccc(N)n2)c(C2=CCCCC2)n1 [Compound 478, N-[(6-amino-2-pyridyl)sulfonyl]-6-tert-butyl-2-(cyclohexen-1-yl)pyridine-3-carboxamide]
